Measurements from patent US20090209535A1, “6-ETHER/THIOETHER-PURINES AS TOPOISOMERASE II CATALYTIC INHIBITORS AND THEIR USE IN THERAPY” (TOPOTARGET A/S, priority 2005, published 2009).

Molecular target: T1, wild-type human topoisomerase II α (Homo sapiens, UniProt P11388)
T1 construct: made in house; host or cells: yeast (over-expressing yeast cells)
Experiment: Topoisomerase II DNA strand passage assay (kDNA decatenation), wild-type enzyme
Type: biochemical
Settings: wild-type enzyme
Experimental: Topoisomerase II catalytic activity (DNA strand passage activity) was measured by using a filter-based kDNA decatenation assay as described in Jensen et al., 2002. Briefly, 200 ng ^3H labelled kDNA isolated from C. fasciculata was incubated with increasing concentrations of drug in 20 μL reaction buffer containing 10 mM TRIS-HCl pH 7.7, 50 mM NaCl, 50 mM KCl, 5 mM MgCl2, 1 mM EDTA, 15 μg/mL BSA and 1 mM ATP using two units of purified wild-type or Y165S mutant topoisomerase II α for 20 minutes at 37° C. (where one unit of activity is defined as the amount of enzyme required for complete decatenation in the absence of drug). After addition of 5× stop buffer (5% Sarkosyl, 0.0025% bromophenol blue, and 50% glycerol), unprocessed kDNA network and decatenated DNA mini-circles were separated by filtering, and the amount of unprocessed kDNA in each reaction was determined by scintillation counting.
FIG. 2 describes the results of studies of the inhibition of topoisomerase II DNA strand passage activity by increasing concentrations of NSC 35866. Inhibition of human topoisomerase II α DNA strand passage activity was assessed by decatenation of tritium-labelled Crithidia fasiculata kDNA using a filter-based assay to separate unprocessed kDNA network from decatenated mini-circles. […] Error bars represent SEM of three independent experiments in panel A and two independent experiments in panel B.
Inhibition of human topoisomerase II α DNA strand passage activity was determined by decatenation of tritium labelled Crithidia fasiculata kDNA as described for FIG. 2. Error bars represent SEM of 3 or 4 independent experiments.

T1 sequence (P11388 whole entry): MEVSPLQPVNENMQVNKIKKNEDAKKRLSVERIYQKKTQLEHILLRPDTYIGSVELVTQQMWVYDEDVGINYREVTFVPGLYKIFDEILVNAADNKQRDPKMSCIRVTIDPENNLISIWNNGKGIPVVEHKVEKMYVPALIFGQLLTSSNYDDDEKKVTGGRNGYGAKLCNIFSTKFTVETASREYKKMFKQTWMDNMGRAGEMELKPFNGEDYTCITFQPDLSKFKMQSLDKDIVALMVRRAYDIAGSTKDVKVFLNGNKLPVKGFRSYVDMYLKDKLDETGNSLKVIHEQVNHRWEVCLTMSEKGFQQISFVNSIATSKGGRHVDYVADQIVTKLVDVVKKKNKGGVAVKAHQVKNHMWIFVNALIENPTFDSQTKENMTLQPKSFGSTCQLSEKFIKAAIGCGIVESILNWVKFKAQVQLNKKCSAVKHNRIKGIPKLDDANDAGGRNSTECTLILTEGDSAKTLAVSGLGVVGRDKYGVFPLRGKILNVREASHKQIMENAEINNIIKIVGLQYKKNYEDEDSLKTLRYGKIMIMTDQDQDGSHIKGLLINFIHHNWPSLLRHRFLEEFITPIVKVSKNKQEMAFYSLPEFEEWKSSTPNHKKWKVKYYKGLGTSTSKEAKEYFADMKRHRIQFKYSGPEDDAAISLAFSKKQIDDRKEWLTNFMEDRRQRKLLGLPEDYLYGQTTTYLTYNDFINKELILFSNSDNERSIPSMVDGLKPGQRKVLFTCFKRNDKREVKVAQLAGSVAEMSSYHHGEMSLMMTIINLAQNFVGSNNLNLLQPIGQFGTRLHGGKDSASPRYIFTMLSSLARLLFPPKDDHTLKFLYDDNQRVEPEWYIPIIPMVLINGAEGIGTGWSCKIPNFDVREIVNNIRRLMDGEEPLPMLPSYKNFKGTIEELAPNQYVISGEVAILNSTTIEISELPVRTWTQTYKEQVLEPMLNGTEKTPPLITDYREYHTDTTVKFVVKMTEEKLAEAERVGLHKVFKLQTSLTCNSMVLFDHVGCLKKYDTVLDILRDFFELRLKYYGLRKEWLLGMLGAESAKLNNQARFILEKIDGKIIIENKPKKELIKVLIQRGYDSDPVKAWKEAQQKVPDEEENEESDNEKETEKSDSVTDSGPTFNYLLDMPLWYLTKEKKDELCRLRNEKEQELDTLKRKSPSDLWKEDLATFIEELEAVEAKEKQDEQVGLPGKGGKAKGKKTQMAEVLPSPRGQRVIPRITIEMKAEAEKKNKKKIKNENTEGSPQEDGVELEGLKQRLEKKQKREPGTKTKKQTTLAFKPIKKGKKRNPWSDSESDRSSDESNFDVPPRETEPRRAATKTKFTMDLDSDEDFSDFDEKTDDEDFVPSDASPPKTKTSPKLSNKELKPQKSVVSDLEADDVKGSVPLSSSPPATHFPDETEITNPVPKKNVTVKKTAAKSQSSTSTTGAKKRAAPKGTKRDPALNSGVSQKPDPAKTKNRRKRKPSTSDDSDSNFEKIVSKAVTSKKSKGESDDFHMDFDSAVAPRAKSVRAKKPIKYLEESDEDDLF

Nc1nc(SCCc2ccccc2)c2nc[nH]c2n1 [NSC 35866, 2-amino-6-(phenylethylthio)-purine]
concentrations at which DNA strand passage activity is inhibited (FIG. 2-A): above 250 μM | inhibition of DNA strand passage (decatenation) activity, in words (FIG. 2-A and FIG. 5): clearly less potent in comparison with the reference compound ICRF-187
